One experiment relates to KRas G12C mutant. Description: Ras GTP binding domain inhibition assay (Cy3-GTP/Cy5-GTP competition). On the set-up: species or system human. To be noted: 20 μM; with SOS. The procedure: (§1) The following method was developed as specific assay for the following proteins: KRas wild type, KRas Q61H mutant, KRas G12C mutant, KRas G12D mutant, HRas wild type, Rac-1, and Rho-A.
(§2) • 25 mM Tris-HCl, pH 7.4 • 27 mM KCl • 137 mM NaCl • 1 mM MgCl2 • 1 mM DTT
(§3) • 50 mM Tris-HCl, pH 7.0 • 1 mM MgCl2 • 1 mM DTT
(§4) The small GTPases proteins: KRas wild type. KRas Q61H mutant, KRas G12C mutant, KRas G12D mutants, HRas wild type, Rac-1, and Rho-A were expressed as His-tagged proteins. In addition, the Guanosine nucleotide Exchange Factor (GEF) Sos protein (residues 556-1049) was expressed as a His-tagged protein. In cells, the guanine nucleotide exchange factor Sos protein promotes activation of Ras proteins by stimulating an exchange of GDP for GTP. The inclusion of Sos to the Ras GTP binding domain inhibition assay may be considered as an alternative representation of physiological cellular conditions for evaluating the inhibitory activity of some of the tested small molecules.
(§5) For the assay, all purified small GTPases proteins were diluted in Buffer-I or Buffer-II to a final concentration of 10-30 μg/mL. 200 μL of each diluted protein was added to a nickel-coated 96-well plate and incubated overnight at 4° C. Then the protein solution was discarded and 200 μL of Buffer-I or Buffer-II was added to each well in the presence of 1% DMSO. Compounds to be tested were added to the protein-coated wells at final concentration of 20 μM, and incubated for 3 hours at room temperature with and without […] of Sos added to the final hour of the incubation. When performing IC50 measurements a serial dilution of all tested concentrations was added. Then Cy3-GTP or Cy5-GTP was added to each well to a final concentration of 100 nM. The labeled GTP was incubated for 45 minutes at room temperature. Following GTP incubation, wells were washed 3× in Buffer-I or Buffer-II and 200 μL of Buffer-I or Buffer-II was added to each well. Following washes, the amount of bound labeled-GTP was measured using a SpectraMax M3 (Molecular Devices).
Regarding `O=C(c1nc(-c2ccccn2)nc(O)c1O)N1CCOCC1` [drawing 800], the “KRas G12C mutant + SOS: % inh.” value was “A (1-25% inhibition)”.

Consider `COc1cccc(Oc2nc(-c3ccccn3)nc(O)c2OC)c1` [drawing 801], for which the “KRas G12C mutant + SOS: % inh.” value is reported as “C (51-75% inhibition)”.

In the case of `COc1c(O)nc(-c2ccccn2)nc1Oc1cccnc1` [drawing 802], the “KRas G12C mutant + SOS: % inh.” value was “C (51-75% inhibition)”.

Regarding `COc1c(O)nc(-c2ccccn2)nc1Oc1cnn(C)c1` [drawing 803], the “KRas G12C mutant + SOS: % inh.” value is “C (51-75% inhibition)”.

Take `COc1c(O)nc(-c2ccccn2)nc1Oc1ccc2ncccc2c1` [drawing 804]: the “KRas G12C mutant + SOS: % inh.” value is recorded as “C (51-75% inhibition)”.

As to `COCC1CN(c2nc(-c3nccn3C)nc3sc(-c4cccc(OC)c4F)c(-c4ccc(OC)cc4)c23)C1` [drawing 805], the “KRas G12C mutant + SOS: % inh.” value is given as “D (76-100% inhibition)”.

In the case of `COc1ccc(-c2c(-c3cccc(OC)c3F)sc3nc(-c4nccn4C)nc(N4CCC(OC)C4)c23)cc1` (centres unmarked) [drawing 806], the “KRas G12C mutant + SOS: % inh.” value was “D (76-100% inhibition)”.

Still in this experiment, the particulars now being: 20 μM; without SOS.
On to `O=C(c1nc(-c2ccccn2)nc(O)c1O)N1CCOCC1` [drawing 800], for which the “KRas G12C mutant: % inh.” value was “B (26-50% inhibition)”.

With `COc1cccc(Oc2nc(-c3ccccn3)nc(O)c2OC)c1` [drawing 801], the “KRas G12C mutant: % inh.” value is “C (51-75% inhibition)”.

Take `COc1c(O)nc(-c2ccccn2)nc1Oc1cccnc1` [drawing 802]: the “KRas G12C mutant: % inh.” value was “C (51-75% inhibition)”.

For the compound `COc1c(O)nc(-c2ccccn2)nc1Oc1cnn(C)c1` [drawing 803], the “KRas G12C mutant: % inh.” value was “C (51-75% inhibition)”.

With `COc1c(O)nc(-c2ccccn2)nc1Oc1ccc2ncccc2c1` [drawing 804], the “KRas G12C mutant: % inh.” value was “C (51-75% inhibition)”.

Consider `COCC1CN(c2nc(-c3nccn3C)nc3sc(-c4cccc(OC)c4F)c(-c4ccc(OC)cc4)c23)C1` [drawing 805], for which the “KRas G12C mutant: % inh.” value is reported as “B (26-50% inhibition)”.

As for `COc1ccc(-c2c(-c3cccc(OC)c3F)sc3nc(-c4nccn4C)nc(N4CCC(OC)C4)c23)cc1` (centres unmarked) [drawing 806], the “KRas G12C mutant: % inh.” value is recorded as “A (1-25% inhibition)”.

Another experiment relates to KRas Q61H mutant. The description is as above. The arrangement: species or system human. Particulars: 20 μM; with SOS. The procedure: as §1, §2, §3, §4, §5
As for `O=C(c1nc(-c2ccccn2)nc(O)c1O)N1CCOCC1` [drawing 800], the “KRas Q61H mutant + SOS: % inh.” value is given as “A (1-25% inhibition)”.

As for `COc1cccc(Oc2nc(-c3ccccn3)nc(O)c2OC)c1` [drawing 801], the “KRas Q61H mutant + SOS: % inh.” value was “C (51-75% inhibition)”.

As for `COc1c(O)nc(-c2ccccn2)nc1Oc1cccnc1` [drawing 802], the “KRas Q61H mutant + SOS: % inh.” value is “C (51-75% inhibition)”.

As for `COc1c(O)nc(-c2ccccn2)nc1Oc1cnn(C)c1` [drawing 803], the “KRas Q61H mutant + SOS: % inh.” value is “C (51-75% inhibition)”.

Turning to `COc1c(O)nc(-c2ccccn2)nc1Oc1ccc2ncccc2c1` [drawing 804], the “KRas Q61H mutant + SOS: % inh.” value is recorded as “C (51-75% inhibition)”.

As to `COCC1CN(c2nc(-c3nccn3C)nc3sc(-c4cccc(OC)c4F)c(-c4ccc(OC)cc4)c23)C1` [drawing 805], the “KRas Q61H mutant + SOS: % inh.” value was “D (76-100% inhibition)”.

As for `COc1ccc(-c2c(-c3cccc(OC)c3F)sc3nc(-c4nccn4C)nc(N4CCC(OC)C4)c23)cc1` (centres unmarked) [drawing 806], the “KRas Q61H mutant + SOS: % inh.” value is “D (76-100% inhibition)”.

The same experiment, now with this note: 20 μM; without SOS.
As to `O=C(c1nc(-c2ccccn2)nc(O)c1O)N1CCOCC1` [drawing 800], the “KRas Q61H mutant: % inh.” value is “B (26-50% inhibition)”.

On to `COc1cccc(Oc2nc(-c3ccccn3)nc(O)c2OC)c1` [drawing 801], for which the “KRas Q61H mutant: % inh.” value is listed as “D (76-100% inhibition)”.

On to `COc1c(O)nc(-c2ccccn2)nc1Oc1cccnc1` [drawing 802], for which the “KRas Q61H mutant: % inh.” value is “D (76-100% inhibition)”.

`COc1c(O)nc(-c2ccccn2)nc1Oc1cnn(C)c1` [drawing 803]: the “KRas Q61H mutant: % inh.” value is “D (76-100% inhibition)”.

Regarding `COc1c(O)nc(-c2ccccn2)nc1Oc1ccc2ncccc2c1` [drawing 804], the “KRas Q61H mutant: % inh.” value is “C (51-75% inhibition)”.

Regarding `COCC1CN(c2nc(-c3nccn3C)nc3sc(-c4cccc(OC)c4F)c(-c4ccc(OC)cc4)c23)C1` [drawing 805], the “KRas Q61H mutant: % inh.” value is given as “D (76-100% inhibition)”.

For the compound `COc1ccc(-c2c(-c3cccc(OC)c3F)sc3nc(-c4nccn4C)nc(N4CCC(OC)C4)c23)cc1` (centres unmarked) [drawing 806], the “KRas Q61H mutant: % inh.” value is given as “C (51-75% inhibition)”.

The next experiment relates to KRas wild type. The description is as above. On the set-up: species or system human. To be noted: 20 μM; with SOS. The method, then:
as §1, §2, §3, §4, §5
For `O=C(c1nc(-c2ccccn2)nc(O)c1O)N1CCOCC1` [drawing 800], the “KRas wild type + SOS: % inh.” value is “A (1-25% inhibition)”.

On to `COc1cccc(Oc2nc(-c3ccccn3)nc(O)c2OC)c1` [drawing 801], for which the “KRas wild type + SOS: % inh.” value is recorded as “C (51-75% inhibition)”.

With `COc1c(O)nc(-c2ccccn2)nc1Oc1cccnc1` [drawing 802], the “KRas wild type + SOS: % inh.” value is recorded as “B (26-50% inhibition)”.

For `COc1c(O)nc(-c2ccccn2)nc1Oc1cnn(C)c1` [drawing 803], the “KRas wild type + SOS: % inh.” value is “B (26-50% inhibition)”.

On to `COc1c(O)nc(-c2ccccn2)nc1Oc1ccc2ncccc2c1` [drawing 804], for which the “KRas wild type + SOS: % inh.” value is reported as “B (26-50% inhibition)”.

In the case of `COCC1CN(c2nc(-c3nccn3C)nc3sc(-c4cccc(OC)c4F)c(-c4ccc(OC)cc4)c23)C1` [drawing 805], the “KRas wild type + SOS: % inh.” value is on record as “D (76-100% inhibition)”.

Take `COc1ccc(-c2c(-c3cccc(OC)c3F)sc3nc(-c4nccn4C)nc(N4CCC(OC)C4)c23)cc1` (centres unmarked) [drawing 806]: the “KRas wild type + SOS: % inh.” value is “D (76-100% inhibition)”.

Staying with this experiment, now noted: 20 μM; without SOS.
With `O=C(c1nc(-c2ccccn2)nc(O)c1O)N1CCOCC1` [drawing 800], the “KRas wild type: % inh.” value is given as “C (51-75% inhibition)”.

`COc1cccc(Oc2nc(-c3ccccn3)nc(O)c2OC)c1` [drawing 801]: the “KRas wild type: % inh.” value is listed as “D (76-100% inhibition)”.

With `COc1c(O)nc(-c2ccccn2)nc1Oc1cccnc1` [drawing 802], the “KRas wild type: % inh.” value is reported as “D (76-100% inhibition)”.

Take `COc1c(O)nc(-c2ccccn2)nc1Oc1cnn(C)c1` [drawing 803]: the “KRas wild type: % inh.” value is “D (76-100% inhibition)”.

On to `COc1c(O)nc(-c2ccccn2)nc1Oc1ccc2ncccc2c1` [drawing 804], for which the “KRas wild type: % inh.” value was “C (51-75% inhibition)”.

Take `COCC1CN(c2nc(-c3nccn3C)nc3sc(-c4cccc(OC)c4F)c(-c4ccc(OC)cc4)c23)C1` [drawing 805]: the “KRas wild type: % inh.” value is reported as “C (51-75% inhibition)”.

With `COc1ccc(-c2c(-c3cccc(OC)c3F)sc3nc(-c4nccn4C)nc(N4CCC(OC)C4)c23)cc1` (centres unmarked) [drawing 806], the “KRas wild type: % inh.” value is on record as “C (51-75% inhibition)”.

In another experiment the target is T1, KRas G12D mutant (Homo sapiens, UniProt P01116, G12D).
T1 construct: fused on or other part: His tag, used for capture on nickel-coated plates
The experiment is described as above. Particulars: 20 μM; with SOS; read-out: KRas G-12D mutant + SOS: % inh. The procedure: as §1, §2, §3, §4, §5
As to `O=C(c1nc(-c2ccccn2)nc(O)c1O)N1CCOCC1` [drawing 800], the inhibition at 20 µM lay in the range of 26 to 50%.

Consider `COc1cccc(Oc2nc(-c3ccccn3)nc(O)c2OC)c1` [drawing 801], for which the inhibition at 20 µM fell in the range of 51 to 75%.

For `COc1c(O)nc(-c2ccccn2)nc1Oc1cccnc1` [drawing 802], the inhibition at 20 µM lay within 51 to 75%.

Regarding `COc1c(O)nc(-c2ccccn2)nc1Oc1cnn(C)c1` [drawing 803], the inhibition at 20 µM is 51 to 75%.

For `COc1c(O)nc(-c2ccccn2)nc1Oc1ccc2ncccc2c1` [drawing 804], the inhibition at 20 µM lay within 26 to 50%.

For the compound `COCC1CN(c2nc(-c3nccn3C)nc3sc(-c4cccc(OC)c4F)c(-c4ccc(OC)cc4)c23)C1` [drawing 805], the inhibition at 20 µM was in the range of 51 to 75%.

`COc1ccc(-c2c(-c3cccc(OC)c3F)sc3nc(-c4nccn4C)nc(N4CCC(OC)C4)c23)cc1` (centres unmarked) [drawing 806]: the inhibition at 20 µM fell in the range of 51 to 75%.

The experiment is the same for the next values; noted with them: 20 μM; without SOS; read-out: KRas G12D mutant: % inh.
For the compound `O=C(c1nc(-c2ccccn2)nc(O)c1O)N1CCOCC1` [drawing 800], the inhibition at 20 µM was 26 to 50%.

Regarding `COc1cccc(Oc2nc(-c3ccccn3)nc(O)c2OC)c1` [drawing 801], the inhibition at 20 µM lay in the range of 76 to 100%.

`COc1c(O)nc(-c2ccccn2)nc1Oc1cccnc1` [drawing 802]: the inhibition at 20 µM was 51 to 75%.

As for `COc1c(O)nc(-c2ccccn2)nc1Oc1cnn(C)c1` [drawing 803], the inhibition at 20 µM fell in the range of 51 to 75%.

For the compound `COc1c(O)nc(-c2ccccn2)nc1Oc1ccc2ncccc2c1` [drawing 804], the inhibition at 20 µM lay within 51 to 75%.

As for `COCC1CN(c2nc(-c3nccn3C)nc3sc(-c4cccc(OC)c4F)c(-c4ccc(OC)cc4)c23)C1` [drawing 805], the inhibition at 20 µM lay in the range of 51 to 75%.

`COc1ccc(-c2c(-c3cccc(OC)c3F)sc3nc(-c4nccn4C)nc(N4CCC(OC)C4)c23)cc1` (centres unmarked) [drawing 806]: the inhibition at 20 µM is 51 to 75%.

The record behind these values is US20250296938A1, “Compounds that Interact with the Ras Superfamily for the Treatment of Cancers, Inflammatory Diseases, Rasopathies, and Fibrotic Disease” (SHY Therapeutics, LLC, priority 2018, published 2025).
